Results reported in patent US12076331B2, “Inositol derivatives for use in pathological crystallization” (ETH Zurich, priority 2015, dated 2024).

Legend:
[1] = system: RPTEC/TERT 1 human proximal tubule cells; experiment: CaP-induced CaOx crystallization on RPTEC monolayers; assay type: cell-based; details: CaP-induced model, 1.2 mM oxalate, 4 h
Description: For the assessment of CaP-induced CaOx crystallization, after 24 h of incubation, Ca/P spiked medium was removed, and cells were washed twice with PBS. Subsequently, medium containing 1.2 mM oxalate and compound was added to each well. After 4 h of incubation at 37° C. and 5% CO2 treatment was removed, and cells washed once with PBS before staining.
For staining, ProxUp basal medium was mixed with calcein (500 nM final concentration), EthD (6 μM final concentration), CellMask stain ([…]) and Hoechst 33342. Staining mixture was added to RPTEC and cells were incubated for 30 min in the dark at 37° C. and 5% CO2. Staining solution was removed, cells were washed with PBS once and ProxUp basal medium was added. Cells were immediately imaged after staining. […] For quantification 3 wells/condition were prepared and 3 images/well were taken. […]
To allow rapid profiling of molecules for their effects on diverse kidney calcification processes, the inventors developed a cell-based assay that allowed the monitoring of CaP deposition, as well as cellular changes associated with it. Therefore, the inventors utilized monolayers of renal proximal tubular cells (RPTEC) stained with various dyes to quantify calcification and cell morphology changes (FIG. 3). […] CaP deposits were detected via calcein staining (FIG. 3B). […]

[2] = system: high phosphate-induced kidney damage; experiment: mouse model of high phosphate-induced kidney damage; assay type: in vivo, C57BL/6 male mice; details: 100 mg/kg 3 times/week subcutaneously, high phosphate diet, vs vehicle
Description: C57BL/6 male were placed on either regular diet containing 0.35% inorganic phosphate (NP) or high phosphate diet containing 2.0% inorganic phosphate (HP). These mice were subcutaneously injected with either (OEG2)2-IP4 (100 mg/kg) or vehicle (distilled water) three times a week and then sacrificed at 20 weeks of age to harvest their blood and kidneys. Relative mRNA levels of (A) Spp1, (B) IL36a, (C) Ngal, (D) MMP3 and (E) Col1a1 in kidney tissue homogenate are shown (mean±SD, N=7, except HP vehicle group N=6, two-way ANOVA with Sidak's multiple comparison between (OEG2)2-IP4 vs. vehicle control within the respective diet group, ns—not significant, * p<0.05). […]
C57BL/6 male mice (12 weeks of age) were placed on either regular diet containing 0.35% inorganic phosphate or high phosphate diet containing 2.0% inorganic phosphate. […] Serum FGF23 levels were measured using intact FGF23 ELISA (Kinos) according to the manufacturers' protocols. Serum and urine levels of phosphate were measured using Fuji Dri-Chem slides and the analyzer (Dri-Chem NX500V, Fuji, Tokyo, Japan). […] Quantitative RT-PCR reactions were performed using 20 ng of cDNA incubated with 410 nM of each primer and 6 μL of SYBR Green PCR Master mix (Toyoba, Osaka, Japan THUNDERBIRD SYBR qPCR Mix QPS-201) in a total volume of 12 μl. […] The cortex and the cortico-medullary junction were evaluated separately. […]

COCCOCCO[C@@H]1C(OP(=O)(O)O)[C@H](OCCOCCOC)[C@@H](OP(=O)(O)O)C(OP(=O)(O)O)[C@H]1OP(=O)(O)O (stereo partly shown) [(OEG2)2-IP4]
CaP-induced CaOx crystallization [1]: reduced | concentration at which COD was almost entirely abolished [1]: 100 µM | fibrosis, collagen volume fraction (Picro-Sirius red staining of the kidneys) [2]: significantly reduces fibrosis | kidney damage and fibrosis markers (Spp1, IL36a, Ngal, MMP3, Col1a1 mRNA) [2]: significantly reduced
